{
  "source": "ChEMBL document CHEMBL3352746",
  "about": "“Synthesis and anticancer activity of quinopimaric and maleopimaric acids’ derivatives” (Bioorg Med Chem, 2014)",
  "key": {"Mus musculus [1]": {"test_system": "Mus musculus", "experiment": "Toxicity in mouse P388 cells implanted mouse assessed as mean spleen weight at 60 mg/kg, ip dosed daily for 5 days administered 24 hrs after tumor implantation", "assay_type": "organism-based", "design": "dose 60 mg/kg, route intraperitoneal", "settings": "in vivo"}, "Mus musculus [2]": {"test_system": "Mus musculus", "experiment": "Toxicity in mouse P388 cells implanted mouse assessed as mouse mortality at 40 mg/kg, ip dosed daily for 5 days administered 24 hrs after tumor implantation", "assay_type": "organism-based", "design": "dose 40 mg/kg, route intraperitoneal", "settings": "in vivo"}, "[3]": {"experiment": "Antitumor activity against mouse CA-755 cells implanted in mouse assessed as tumor growth inhibition at 40 mg/kg, ip dosed daily for 5 days measured 5 days after treatment termination", "assay_type": "functional", "settings": "CA-755, ip, 120 h, route intraperitoneal, read-out: TGI"}, "Mus musculus [4]": {"test_system": "Mus musculus", "experiment": "Toxicity in mouse LLC cells implanted mouse assessed as mouse mortality at 40 mg/kg, ip dosed daily for 5 days", "assay_type": "organism-based", "design": "dose 40 mg/kg, route intraperitoneal", "settings": "in vivo, 120 h"}, "CCRF-CEM": {"test_system": "CCRF-CEM", "experiment": "Growth inhibition of human CCRF-CEM cells", "assay_type": "functional"}, "K562": {"test_system": "K562", "experiment": "Growth inhibition of human K562 cells", "assay_type": "functional"}, "A549": {"test_system": "A549", "experiment": "Growth inhibition of human A549/ATCC cells", "assay_type": "functional"}, "[5]": {"experiment": "Growth inhibition of human EKVX cells", "assay_type": "functional"}, "NCI-H226": {"test_system": "NCI-H226", "experiment": "Growth inhibition of human NCI-H226 cells", "assay_type": "functional"}, "[6]": {"experiment": "Growth inhibition of human HCT15 cells", "assay_type": "functional"}, "SW-620": {"test_system": "SW-620", "experiment": "Growth inhibition of human SW620 cells", "assay_type": "functional"}, "SNB-19": {"test_system": "SNB-19", "experiment": "Growth inhibition of human SNB19 cells", "assay_type": "functional"}, "U-251": {"test_system": "U-251", "experiment": "Growth inhibition of human U251 cells", "assay_type": "functional"}, "Malme-3M": {"test_system": "Malme-3M", "experiment": "Growth inhibition of human MALME-3M cells", "assay_type": "functional"}, "ACHN": {"test_system": "ACHN", "experiment": "Growth inhibition of human ACHN cells", "assay_type": "functional"}, "[7]": {"experiment": "Growth inhibition of human RXF393 cells", "assay_type": "functional"}, "MCF7": {"test_system": "MCF7", "experiment": "Growth inhibition of human MCF7 cells", "assay_type": "functional"}, "MDA-MB-231": {"test_system": "MDA-MB-231", "experiment": "Growth inhibition of human MDA-MB-231 cells", "assay_type": "functional"}, "[8]": {"settings": "read-out: pLC50 (the source's name) (converted)"}},
  "data": [
    {"molecule": "COC(=O)[C@]1(C)CCC[C@]2(C)[C@H]3C[C@H]4C(C(C)C)=C[C@]3(CC[C@H]21)[C@@H]1/C(=N/O)CC/C(=N\\O)[C@@H]14", "values": [
      {"measurement": "Activity", "setting": "Mus musculus [1]", "value": 144, "unit": "mg"},
      {"measurement": "Activity", "setting": "Mus musculus [2]", "value": "Non-toxic"},
      {"measurement": "inhibition in vivo at 40 mg/kg", "setting": "[3]", "value": 72, "unit": "%"},
      {"measurement": "Activity", "setting": "Mus musculus [4]", "value": "Non-toxic"},
      {"measurement": "GI50", "setting": "CCRF-CEM", "value": 2.4, "unit": "µM"},
      {"measurement": "CC50", "setting": "CCRF-CEM; [8]", "value": 50.1, "unit": "µM"},
      {"measurement": "TGI", "setting": "CCRF-CEM; read-out: pTGI (converted)", "value": 7.08, "unit": "µM"},
      {"measurement": "GI50", "setting": "K562; K562", "value": 3.24, "unit": "µM"},
      {"measurement": "CC50", "setting": "K562; K562, read-out: pLC50 (converted)", "value": "> 100", "unit": "µM"},
      {"measurement": "TGI", "setting": "K562; K562, read-out: pTGI (converted)", "value": 11.7, "unit": "µM"},
      {"measurement": "GI50", "setting": "A549; A549", "value": 3.09, "unit": "µM"},
      {"measurement": "CC50", "setting": "A549; A549, read-out: pLC50 (converted)", "value": "> 100", "unit": "µM"},
      {"measurement": "TGI", "setting": "A549; A549, read-out: pTGI (converted)", "value": 10.5, "unit": "µM"},
      {"measurement": "GI50", "setting": "[5]", "value": 3.72, "unit": "µM"},
      {"measurement": "CC50", "setting": "[5]; [8]", "value": 79.4, "unit": "µM"},
      {"measurement": "TGI", "setting": "[5]; read-out: pTGI (converted)", "value": 18.2, "unit": "µM"},
      {"measurement": "GI50", "setting": "NCI-H226", "value": 7.94, "unit": "µM"},
      {"measurement": "CC50", "setting": "NCI-H226; [8]", "value": 85.1, "unit": "µM"},
      {"measurement": "TGI", "setting": "NCI-H226; read-out: pTGI (converted)", "value": 28.2, "unit": "µM"},
      {"measurement": "GI50", "setting": "[6]; HCT-15", "value": 3.39, "unit": "µM"},
      {"measurement": "CC50", "setting": "[6]; HCT-15, read-out: pLC50 (the source's name) (converted)", "value": 39.8, "unit": "µM"},
      {"measurement": "TGI", "setting": "[6]; HCT-15, read-out: pTGI (converted)", "value": 12.9, "unit": "µM"},
      {"measurement": "GI50", "setting": "SW-620", "value": 3.47, "unit": "µM"},
      {"measurement": "CC50", "setting": "SW-620; [8]", "value": 49, "unit": "µM"},
      {"measurement": "TGI", "setting": "SW-620; read-out: pTGI (converted)", "value": 14.5, "unit": "µM"},
      {"measurement": "GI50", "setting": "SNB-19", "value": 11.5, "unit": "µM"},
      {"measurement": "CC50", "setting": "SNB-19; [8]", "value": 55, "unit": "µM"},
      {"measurement": "TGI", "setting": "SNB-19; read-out: pTGI (converted)", "value": 25.1, "unit": "µM"},
      {"measurement": "GI50", "setting": "U-251", "value": 4.07, "unit": "µM"},
      {"measurement": "CC50", "setting": "U-251; [8]", "value": 39.8, "unit": "µM"},
      {"measurement": "TGI", "setting": "U-251; read-out: pTGI (converted)", "value": 15.1, "unit": "µM"},
      {"measurement": "GI50", "setting": "Malme-3M", "value": 5.89, "unit": "µM"},
      {"measurement": "CC50", "setting": "Malme-3M; [8]", "value": 50.1, "unit": "µM"},
      {"measurement": "TGI", "setting": "Malme-3M; read-out: pTGI (converted)", "value": 20, "unit": "µM"},
      {"measurement": "GI50", "setting": "ACHN", "value": 3.31, "unit": "µM"},
      {"measurement": "CC50", "setting": "ACHN; [8]", "value": 32.4, "unit": "µM"},
      {"measurement": "TGI", "setting": "ACHN; read-out: pTGI (converted)", "value": 10.5, "unit": "µM"},
      {"measurement": "GI50", "setting": "[7]; RXF 393", "value": 2.14, "unit": "µM"},
      {"measurement": "CC50", "setting": "[7]; RXF 393, read-out: pLC50 (the source's name) (converted)", "value": 8.91, "unit": "µM"},
      {"measurement": "TGI", "setting": "[7]; RXF 393, read-out: pTGI (converted)", "value": 4.37, "unit": "µM"},
      {"measurement": "GI50", "setting": "MCF7", "value": 1.78, "unit": "µM"},
      {"measurement": "CC50", "setting": "MCF7; [8]", "value": 9.55, "unit": "µM"},
      {"measurement": "TGI", "setting": "MCF7; read-out: pTGI (converted)", "value": 4.07, "unit": "µM"},
      {"measurement": "GI50", "setting": "MDA-MB-231", "value": 7.24, "unit": "µM"},
      {"measurement": "CC50", "setting": "MDA-MB-231; [8]", "value": 56.2, "unit": "µM"},
      {"measurement": "TGI", "setting": "MDA-MB-231; read-out: pTGI (converted)", "value": 22.4, "unit": "µM"}
    ]}
  ]
}
